Data reported in PubChem BioAssay (NCI).
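Results reflect a 48-hour exposure of cells in 96-well plates to compound at five concentrations. TGI is the concentration that stops growth completely.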

Tests used:
Experiment in all cases: inhibition of tumour cell growth, NCI panel, 48 h
ACHN renal = system: ACHN renal
RXF 393 renal = system: RXF 393 renal
HOP-92 NSCLC = system: HOP-92 NSCLC
MDA-MB-231 breast = system: MDA-MB-231 breast
SR leukemia = system: SR leukemia
CCRF-CEM leukemia = system: CCRF-CEM leukemia
COLO 205 colon = system: COLO 205 colon
HCT-15 colon = system: HCT-15 colon
BT-549 breast = system: BT-549 breast
NCI-H23 lung = system: NCI-H23 lung

SMILES | TGI (ACHN renal) | TGI (RXF 393 renal) | TGI (HOP-92 NSCLC) | TGI (MDA-MB-231 breast) | TGI (SR leukemia) | TGI (CCRF-CEM leukemia) | TGI (COLO 205 colon) | TGI (HCT-15 colon) | TGI (BT-549 breast) | TGI (NCI-H23 lung)
CC/C(Cl)=N\OC(=O)Nc1ccc(F)c([N+](=O)[O-])c1 | 4.78 µM | 30.4 µM | 12 µM | 34.9 µM | > 68.6 µM | > 20 µM | 6.58 µM | 19.8 µM | 31.5 µM | 35.6 µM
COc1ccc(N=NC(=Nc2ccc(F)cc2)c2ccc(N(CCC#N)CCC#N)cc2)cc1 | > 100 µM | 90 µM | 72.9 µM | 52.8 µM | > 100 µM | > 100 µM | > 100 µM | > 100 µM | 70.8 µM | 65.6 µM
CCOC(=O)C1(C(=O)OCC)CCCN1C(=O)[C@H](CNC(=O)OC(C)(C)C)NC(=O)OCc1ccccc1 | > 100 µM | > 100 µM | – | > 100 µM | > 100 µM | > 100 µM | > 100 µM | > 100 µM | > 100 µM | > 100 µM
CN1COCc2cc3cc4c(cc3nc21)OCCO4 | > 100 µM | > 100 µM | > 100 µM | > 100 µM | – | > 100 µM | > 100 µM | > 100 µM | > 100 µM | –
COC(=O)c1cc2c(cc1CC(Cc1ccc3c(c1)CCC3)C(=O)OC)CCC2 (centres undefined) | > 100 µM | 65.3 µM | > 100 µM | > 100 µM | 57.4 µM | > 100 µM | > 100 µM | > 100 µM | > 100 µM | > 100 µM
CCCOC(=O)NC(C)C(=O)NC(CCC(=O)NC(CCCC(N)C(=O)O)C(=O)NC(C)C(=O)O)C(=O)O (centres undefined) | > 100 µM | – | 77.4 µM | 50.8 µM | 32.4 µM | 36.9 µM | 48.7 µM | 34.6 µM | 37.9 µM | > 100 µM
COc1ccc(/C=N/N2C(=O)c3c(N)c(C#N)c(-c4ccccc4)c(-c4ccccc4)c3C2=O)cc1 | > 100 µM | > 100 µM | > 100 µM | > 100 µM | > 100 µM | > 100 µM | > 100 µM | > 100 µM | > 100 µM | –
O=C(O)c1ccc2c(c1)CC1(C2)Cc2cc3c(cc2C1=O)CCC3 (centres undefined) | > 100 µM | > 100 µM | > 100 µM | > 100 µM | > 100 µM | > 100 µM | > 100 µM | > 100 µM | > 100 µM | > 100 µM
CCOC(=O)C1CN(C2CC2)CCC1=O (centres undefined) | > 100 µM | > 100 µM | – | > 100 µM | > 100 µM | > 100 µM | > 100 µM | > 100 µM | > 100 µM | > 100 µM
CC12CC1C(c1cccc([N+](=O)[O-])c1)(c1cccc([N+](=O)[O-])c1)N=N2 (centres undefined) | 29.4 µM | – | 34.7 µM | 39.1 µM | 55.8 µM | 43.9 µM | 41.5 µM | 44 µM | 45.8 µM | 51.5 µM
CCc1nc2cc3cccnc3c(Cl)c2[nH]c1=O | > 100 µM | 91.1 µM | > 100 µM | > 100 µM | > 100 µM | > 100 µM | > 100 µM | > 100 µM | > 100 µM | > 100 µM
Cc1ccc(S(=O)(=O)NC(=O)NNc2ccc(F)cc2)cc1 | > 100 µM | > 100 µM | > 100 µM | > 100 µM | – | > 100 µM | > 100 µM | > 100 µM | > 31.6 µM | –
COc1ccc(N=Nc2c3c(c(O)c4ccccc24)CCC(C)(C)O3)cc1 | 32.4 µM | 34 µM | 47.1 µM | 63.9 µM | 39.1 µM | 41.7 µM | 72.8 µM | 28.9 µM | 34.6 µM | 34.4 µM
COC(=O)[C@H](C)NC(=O)[C@H](CSC)N1C(=O)N[C@@H](C(C)C)C1=O | > 100 µM | > 100 µM | > 100 µM | > 100 µM | > 100 µM | > 100 µM | > 100 µM | > 100 µM | > 100 µM | > 100 µM
COc1ccc(N=C2C(=S)N(c3ccc(OC)cc3)/C(=N/S(=O)(=O)c3ccccc3)N2c2ccccc2)cc1 | 21.7 µM | 16 µM | 20.7 µM | 10.6 µM | > 66.4 µM | > 100 µM | 24.8 µM | 23.5 µM | 11.2 µM | 29 µM
CCCCN(CCCC)C(=C(C(Cl)=C(Cl)Cl)[N+](=O)[O-])N(CCCC)CCCC | > 100 µM | – | > 100 µM | > 100 µM | – | – | > 100 µM | > 100 µM | > 100 µM | > 100 µM
OC1(c2ccc(Cl)cc2)c2ccc(CN3CCCC3)cc2C2=NCCN21 (centres undefined) | 30.3 µM | 21.2 µM | 16.1 µM | 27.3 µM | 33.1 µM | 30.7 µM | 22.7 µM | 32.9 µM | 21.3 µM | 31.2 µM
O=C(O)c1c2c(cc3c1CC1(Cc4ccccc4C1=O)C3)CCC2 (centres undefined) | > 100 µM | > 100 µM | > 91.6 µM | > 100 µM | 9.56 µM | 33.9 µM | 54.6 µM | > 100 µM | > 93.4 µM | > 100 µM
COC(=O)c1cc(C)ccc1CC(Cc1ccc(C)cc1)C(=O)OC (centres undefined) | > 100 µM | 11.5 µM | 60.2 µM | > 100 µM | > 100 µM | > 100 µM | > 100 µM | > 77.9 µM | > 100 µM | > 100 µM
O=C(CNCc1ccccc1)Oc1c(Cl)c(Cl)c(Cl)c(Cl)c1Cl | 51.1 µM | > 100 µM | – | 69.1 µM | 47.9 µM | – | 85.9 µM | 61 µM | 44.2 µM | > 100 µM
COc1cc(C=C2C(=O)NC(=S)NC2=O)cc(OC)c1OC | > 100 µM | > 100 µM | > 100 µM | > 100 µM | – | > 100 µM | > 100 µM | > 100 µM | > 100 µM | > 100 µM
O=C1CCc2ccc3c(c21)CC1(Cc2ccccc2C1)C3 | > 100 µM | – | 45.9 µM | 40.2 µM | 78.8 µM | > 100 µM | > 100 µM | > 100 µM | > 100 µM | > 100 µM
